In series [1] the test system is SARS‐CoV‐2. The settings on record: A549‐ACE2 cells; cited from earlier work.
The conditions of series [2]: phase I study, single‐dose treatment, fasted conditions, without ritonavir coadministration; cited from earlier work.
Series [3] has as its target T1, SARS‐CoV‐2 M^pro (Severe acute respiratory syndrome coronavirus 2, UniProt P0DTD1). The experiment in a line: Screening of M^pro inhibition at 10 and 50 µM (fluorogenic substrate Boc‐Abu‐Tle‐Leu‐Gln‐AMC). Particulars: for M^pro inhibition (in words): screened at 10 and 50 µM. Type of series: biochemical.
Series [4] has as its target T1, SARS‐CoV‐2 M^pro. The experiment in a line: Determination of IC50 and K i values. Type of series: biochemical. Particulars: for Ki: calculated from IC50 with the Cheng‐Prusoff equation.
In series [5] the target is T1, SARS‐CoV‐2 M^pro. The experiment in a line: Determination of k inac/K i for irreversible inhibitors. The format is biochemical. The settings on record: for k inac/K i: second‐order rate constant of enzyme inactivation, reactions monitored for 60 min.
In series [6] the target is T1, SARS‐CoV‐2 M^pro. The experiment in a line: Investigation of inhibition reversibility by jump dilution. Particulars: 25 min preincubation, 100‐fold jump dilution. The format is biochemical.
Series [7] relates to SARS‐CoV‐2. Nature of the series: Cellular antiviral activity, virus plaque assay in A549‐ACE2 cells. The format is cell-based.
A short description of series [8]: In vitro stability in human plasma. The settings on record: plasma diluted to 80% with sodium phosphate buffer, pH 7.4, male human plasma, 37°C, read-out: plasma half‐life t 1/2. Type of series: in vitro ADME. Here is the method:
For the investigation of the in vitro stability of 12 in human plasma, 100 µM of the M^pro inhibitor was incubated with male human plasma at 37°C for five different time periods.
A volume of 30 µL of a 2 mM compound stock solution in DMSO was mixed with 570 µL of a male human plasma solution (Biomol GmbH, Hamburg, Germany) that was diluted to 80% with 0.05 M sodium phosphate buffer, pH 7.4, and prewarmed at 37°C. The final compound concentration was 100 µM, and the DMSO concentration was 5% (v/v). The mixture was divided into aliquots of 100 µL, which were incubated for different time periods and subsequently quenched by the addition of 200 µL of a 0.05 mg/mL reserpine (internal standard) and 2% AcOH (v/v) solution in MeOH. The samples were vortexed for 1 min, stored on ice for 15 min, and subsequently centrifuged at 15,000 rpm and 4°C for 2 min. After filtration through a 0.45 µm polytetrafluoroethylene membrane filter, the resulting solutions were analyzed by HPLC (Jasco Deutschland GmbH, Pfungstadt, Germany). […] The residual proportion was plotted versus incubation time and non‐linear regression according to Y(t) = Y 0 × e^ (‐kt) provided the first‐order rate constant of degradation k, with Y 0 being the compound proportion at t = 0 and Y(t) the residual proportion after a specific incubation time t. Equation t 1/2 = ln2/k afforded the plasma half‐life t 1/2 (n = 2).

For series [9], the system named is A549‐ACE2 cells. The settings on record: up to 100 µM.
Series [10] is described as follows: in vitro. Particulars: human.
Series [11] can be described thus: Stability in aqueous media.
Setting [12] is: read-out: Inhibition @ [I] = 10 µM (%).
[13] abbreviates: read-out: Inhibition @ [I] = 50 µM (%).
Setting [14] is: [I] = 50 µM, product formation determined after 10 min.
Where [15] appears, read: product formation determined after 10 min.
The mark [16] stands for this setting: [I] = 10 µM, product formation determined after 10 min.

The structures appear in SMILES notation. Several values for one entry are separate records, joined by “and”; a condition that tells them apart may be missing. Identical values can stand only once. Counter-ions that a name gives are not always drawn. Like-named read-outs stand apart in the source and are kept apart here.

The term EC50 denotes the concentration that produces a half-maximal response. `CC(C)(C)[C@H](NC(=O)C(F)(F)F)C(=O)N1C[C@H]2[C@@H]([C@H]1C(=O)N[C@H](C#N)C[C@@H]1CCNC1=O)C2(C)C` [nirmatrelvir]: in series [1], the half-maximal effective concentration (EC50) is 54 nM. Further, in [2], the “plasma half‐life” value was 122 min.

Broadly, the inhibition is the share of the control response that was lost under treatment. Take `CN(CC#N)NC(=O)[C@H](Cc1ccccc1)NC(=O)OCc1ccccc1` [Compound 10, Benzyl (S)‐{1‐[2‐(cyanomethyl)‐2‐methylhydrazineyl]‐1‐oxo‐3‐phenylpropan‐2‐yl}carbamate]: the inhibition at 10 µM in series [3] (setting [12]) came to 10%. Also, the inhibition at 50 µM in [3] (setting [13]) was determined as 11%. Besides, in series [3], the “M^pro inhibition (in words)” value is listed as “did not exhibit notable inhibitory properties”.

What is called Ki is the dissociation constant of the complex between target and ligand, obtained from inhibition or displacement. The IC50 is the concentration that inhibits the measured activity by half. The low end stands for higher potency, the high end for lower potency. With `CC(C)(C)[C@H](NC(=O)c1cccs1)C(=O)N[C@@H](Cc1ccccc1)C(=O)NN(Cc1cccc(Cl)c1)C(=O)CCl` [Compound 12, N‐{[S]‐1‐[({S}‐1‐{2‐(2‐Chloroacetyl)‐2‐(3‐chlorobenzyl)hydrazineyl}‐1‐oxo‐3‐phenylpropan‐2‐yl)amino]‐3,3‐dimethyl‐1‐oxobutan‐2‐yl}thiophene‐2‐carboxamide], in [3] (setting [14]), the inhibition at 50 µM was found to be 100%. Besides, in [4], the inhibition constant Ki was 0.023 ± 0.0017 µM. The IC50 in series [4] (setting [15]) was determined as 0.0466 ± 0.0034 µM. Besides, in [5] (12 compared with 14), the “improvement of k inac/K i value versus 14” value is 50 fold. Also, the “k inac/K i” value in series [5] was 78,900 M^−1s^−1 and 78,900 ± 12,800 M^−1s^−1 and 100% inhibition @ 50 µM^a Ki = 0.0230 µM^b kinac/Ki = 78,900 M^-1s^-1 c EC50 = 0.47 µM^d M^−1s^−1. Also, the “M^pro inhibition reversibility” value in series [6] is given as “irreversible”. In addition, the EC50 in series [7] (Severe acute respiratory syndrome coronavirus 2, A549‐ACE2 cells, MOI 0.1, 24 h postinfection, plaque assay, read-out: EC50) was 470 nM. Further, the half-life at 100 µM in [8] came out at 95.9 ± 8.9 min. Moreover, in series [9], the cytotoxicity entry is given as “no cytotoxicity”. For the same molecule, the CC50 at 24 h in series [10] was > 100 µM.

Take `CN(NC(=O)[C@H](Cc1ccccc1)NC(=O)OCc1ccccc1)C(=O)C(F)Cl` (stereo partly shown) [Compound 8, Benzyl {[2S]‐1‐[2‐(2‐chloro‐2‐fluoroacetyl)‐2‐methylhydrazinyl]‐1‐oxo‐3‐phenylpropan‐2‐yl}carbamate]: the inhibition at 10 µM in series [3] (setting [12]) came to 10%. Also, the inhibition at 50 µM in series [3] (setting [13]) worked out at 16%. For the same molecule, in [3], the “M^pro inhibition (in words)” value is recorded as “failed to strongly inhibit”.

On to `CCOC(=O)/C=C/C(=O)N(C)NC(=O)[C@H](Cc1ccccc1)NC(=O)OCc1ccccc1` [Compound 5, Ethyl (E)‐4‐{2‐[({benzyloxy}carbonyl)‐L‐phenylalanyl]‐1‐methylhydrazineyl}‐4‐oxobut‐2‐enoate], for which, in [3] (setting [12]), the inhibition at 10 µM came out at 7%. Besides, in series [3] (setting [13]), the inhibition at 50 µM came to 13%. For the same molecule, the “M^pro inhibition (in words)” value in series [3] is recorded as “did not cause protease inhibition”.

In the case of `CN(NC(=O)[C@H](Cc1ccccc1)NC(=O)OCc1ccccc1)C(=O)C(F)(F)Cl` [Compound 9, Benzyl (S)‐{1‐[2‐(2‐chloro‐2,2‐difluoroacetyl)‐2‐methylhydrazineyl]‐1‐oxo‐3‐phenylpropan‐2‐yl}carbamate], the inhibition at 10 µM in series [3] (setting [12]) was 9%. The inhibition at 50 µM in series [3] (setting [13]) came to 15%. Besides, in series [3], the “M^pro inhibition (in words)” value was “failed to strongly inhibit”.

In the case of `CN(NC(=O)[C@H](Cc1ccccc1)NC(=O)OCc1ccccc1)C(=O)C(Cl)Cl` [Compound 7, Benzyl (S)‐{1‐[2‐(2,2‐dichloroacetyl)‐2‐methylhydrazineyl]‐1‐oxo‐3‐phenylpropan‐2‐yl}carbamate], in series [3] (setting [16]), the inhibition at 10 µM is 85%. For the same molecule, 50 µM produced 100% inhibition in [3] (setting [14]). For the same molecule, the inhibition constant (Ki) in series [4] is 1.22 ± 0.09 µM. Also, in series [4] (setting [15]), 2.47 ± 0.18 µM corresponded to half-maximal inhibition (IC50). For the same molecule, the “M^pro inhibition reversibility” value in [6] was “reversible”.

Consider `CCOC(=O)N(C)NC(=O)[C@H](Cc1ccccc1)NC(=O)OCc1ccccc1` [Compound 3, Ethyl 2‐{[(N‐benzyloxy)carbonyl]‐L‐phenylalanyl}‐1‐5;methylhydrazine‐1‐carboxylate], for which the inhibition at 10 µM in series [3] (setting [12]) was 2%. Moreover, the inhibition at 50 µM in series [3] (setting [13]) was 3%. For the same molecule, in series [3], the “M^pro inhibition (in words)” value is reported as “did not cause protease inhibition”.

`Cn1cnc(Cn2c(=O)[nH]/c(=N\c3cc4cn(C)nc4cc3Cl)n(Cc3cc(F)c(F)cc3F)c2=O)n1` [ensitrelvir, reference compound]: in [7] (Severe acute respiratory syndrome coronavirus 2, A549-ACE2, 24 h), the EC50 is 28 nM. The CC50 in series [10] was > 100 µM.

Take `CC(C)(C)[C@H](NC(=O)c1cccs1)C(=O)N[C@@H](Cc1ccccc1)C(=O)NN(Cc1cccc(Cl)c1)C(=O)C(Cl)Cl` [Compound 13, N‐{[S]‐1‐[({S}‐1‐{2‐(3‐Chlorobenzyl)‐2‐(2,2‐dichloroacetyl)hydrazineyl}‐1‐oxo‐3‐phenylpropan‐2‐yl)amino]‐3,3‐dimethyl‐1‐oxobutan‐2‐yl}thiophene‐2‐carboxamide]: the inhibition at 50 µM in [3] (setting [13]) is < 50%. Further, the “M^pro inhibition reversibility” value in series [6] is “Reversible”.

For `COC(=O)/C=C/N(C)NC(=O)[C@H](Cc1ccccc1)NC(=O)OCc1ccccc1` [Compound 1, Methyl (E)‐3‐{2‐[({benzyloxy}carbonyl)‐L‐phenylalanyl]‐1‐methylhydrazineyl}acrylate], the inhibition at 10 µM in [3] (setting [12]) is 4%. Also, in [3] (setting [13]), the inhibition at 50 µM is 0%. Also, the “M^pro inhibition (in words)” value in [3] is “inactive”.

Take `COC(=O)/C=C(\C(=O)OC)N(C)NC(=O)[C@H](Cc1ccccc1)NC(=O)OCc1ccccc1` [Compound 2, Dimethyl 2‐{2‐[({benzyloxy}carbonyl)‐L‐phenylalanyl]‐1‐methylhydrazineyl}maleate]: the inhibition at 10 µM in series [3] (setting [12]) was found to be 1%. Further, in [3] (setting [13]), the inhibition at 50 µM is 2%. The “M^pro inhibition (in words)” value in series [3] is “inactive”.

Consider `CC(C)(C)[C@H](NC(=O)c1cccs1)C(=O)N[C@@H](Cc1ccccc1)C(=O)NN(Cc1cccc(Cl)c1)C(=O)C(F)Cl` (mixture of isomers) [Compound 14, N‐{[2S]‐1‐[({2S}‐1‐{2‐(2‐Chloro‐2‐fluoroacetyl)‐2‐(3‐chlorobenzyl)hydrazineyl}‐1‐oxo‐3 phenylpropan‐2‐yl)amino]‐3,3‐dimethyl‐1‐oxobutan‐2‐yl}thiophene‐2‐carboxamide], for which the inhibition at 50 µM in series [3] (setting [13]) came out at 69%. Besides, the Ki in [4] is 4.34 ± 0.6 µM. The molecule further gave a half-inhibitory concentration (IC50) in [4] (setting [15]) of 8.82 ± 1.22 µM. Moreover, the “M^pro inhibition reversibility” value in series [6] is “irreversible”.

In the case of `CN(NC(=O)[C@H](Cc1ccccc1)NC(=O)OCc1ccccc1)S(=O)(=O)F` [Compound 11, Benzyl (S)‐{1‐[2‐(fluorosulfonyl)‐2‐methylhydrazineyl]‐1‐oxo‐3‐phenylpropan‐2‐yl}carbamate], the inhibition at 10 µM in [3] (setting [12]) is 40%. Besides, in [4], the concentration for half-maximal inhibition (IC50) stood at 14.7 ± 0.7 µM and the inhibition constant (Ki) is 7.24 ± 0.34 µM. Further, in series [5], the “k inac/K i” value is 54.6 ± 25.0 M⁻¹ s⁻¹ and 54.6 M⁻¹ s⁻¹. The “M^pro inhibition reversibility” value in series [6] is “irreversible”. The “stability in aqueous media” value in series [11] is “not sufficiently stable”.

Regarding `COC(=O)CC(=O)N(C)NC(=O)[C@H](Cc1ccccc1)NC(=O)OCc1ccccc1` [Compound 4, Methyl 3‐{2‐[({benzyloxy}carbonyl)‐L‐phenylalanyl]‐1‐6;methylhydrazineyl}‐3‐oxopropanoate], the inhibition at 10 µM in series [3] (setting [12]) amounted to 0%. In addition, the inhibition at 50 µM in series [3] (setting [13]) stood at 0%. Besides, in [3], the “M^pro inhibition (in words)” value is “inactive”.

For `CCN(CC)CCOC(=O)c1ccc(N)cc1` [Procaine hydrochloride, reference compound], in series [8], the half-life at 100 µM is 7.8 ± 0.94 min.

`CN(NC(=O)[C@H](Cc1ccccc1)NC(=O)OCc1ccccc1)C(=O)CCl` [Compound 6, Benzyl (S)‐{1‐[2‐(2‐chloroacetyl)‐2‐methylhydrazineyl]‐1‐oxo‐3‐phenylpropan‐2‐yl}carbamate] had an inhibition at 10 µM in series [3] (setting [16]) of 19%. This molecule returned an inhibition at 50 µM in series [3] (setting [14]) of 55%. Besides, the Ki in series [4] is 14.8 ± 0.8 µM. It took 30.1 ± 1.7 µM to reach half-maximal inhibition in series [4] (setting [15]) (IC50). Also, the “M^pro inhibition reversibility” value in [6] is “irreversible”.

Source of the values: publication PMC12723578 (Archiv Der Pharmazie, 2025).
